Assay results reported in US20220016196A1, “Aloe Based Compositions Comprising Polysaccharides and Polyphenols for Regulation of Homeostasis of Immunity” (Unigen, Inc., priority 2020, published 2022).

Legend:
HMGB1 = experiment: Inhibition of hyperoxia-induced HMGB1 release from macrophages (ELISA); type: cell-based, mouse; details: RAW 264.7 cells, 95% O2 24 hours, test substance 25 μg/mL, ELISA of supernatant
Description: Macrophages cultured under hyperoxic conditions experience oxidative stress, causing them to secrete HMGB1 to the cell culture media. To determine the efficacy of the Aloe-based composition and its components in reducing the accumulation of extracellular HMGB1 of cultured macrophages, RAW 264.7 cells were exposed for 24 hours to either 21% O2 (room air (RA)), or 95% O2 in the presence or absence of test substance at 25 μg/mL concentration. HMGB1 levels in cell culture supernatants were determined by ELISA at a single concentration of test substance in duplicate. The data are expressed as mean±SEM of one experiment assayed in duplicate. *p<0.05, **p<0.01, ****p<0.0001 compared to macrophages treated under hyperoxia with vehicle only. Control cells were treated with Sodium Salicylate (SS) as a positive control, which attenuates hyperoxia-compromised macrophage function and oxidative-stress-induced HMGB 1 release.

RAW 264.7 cells [1] = experiment: MTT assay in cultured RAW 264.7 cells under hyperoxia; type: cell-based, mouse; details: RAW 264.7, 95% O2 24 hours
Description: Cell viability was determined by MTT assay.

[2] = test system: HSF cells (Human fibroblasts); experiment: DNA damage of human fibroblasts induced by hydrogen peroxide (γH2AX); type: cell-based; details: γH2AX staining, H2O2 1 mM 4 h
Description: HSF cells (Human fibroblasts) were seeded in 96-well tissue culture plates and incubated at 37° C. and in 5% CO2 and 95% air with test substances. Treated HSF cells were subjected to DNA damage by incubating with H2O2 at a concentration of 1 mM for 4 h, then immunostained for γH2AX, a phosphorylated histone that is a marker of DNA double strand breaks. DAPI was used to stain the cell nucleus. Pictures taken by Image Xpress and analyzed with Meta Xpress. Catechin (100 μg/ml) was used as positive control with 70% reduction of DNA damage, as assessed by quantification of γH2AX staining. […]. Rosmarinic acid reduced DNA damage by 24% at 25 μg/mL.

HaCaT cells [3] = experiment: Cytotoxicity (CCK viability) in HaCaT cells; type: cell-based, human; details: 25 μg/mL
Description: (§1) HaCaT cells (Human immortal keratinocyte cells) were seeded at a density of 8,000 cells/well in 96-well tissue culture plates and treated for 24 hours with test substance at 25 μg/mL. Cytotoxicity was evaluated to remove false positives (CCK >80% viability). DCFH-DA (a fluorescent probe) was added to cells to detect ROS production and incubated at 37° C. for 25 minutes. After exposure to UV irradiation under the solar simulator (Sol-UV-6 Solar Simulator) with ultraviolet filter for 10 minutes, the fluorescence value was measured at 488 nm (excitation) and 525 nm (emission) by Multimode Reader. Vitamin C was used as positive control treated at 40 μg/mL with 43% reduction of ROS production. At 25 μg/mL, Rosmarinic acid decreased ROS generation by 24%, compared to the level of UV exposed HaCaT cells. Organic extracts (OE) were tested at 50 μg/mL, while aqueous extracts were tested at 100 μg/mL. Fractions or pure compounds were tested at 25 μg/mL in this assay.

RAW 264.7 cells [4] = experiment: Hyperoxia-induced dysfunctional macrophage phagocytosis assay; type: cell-based, mouse; details: RAW 264.7, 95% O2 24 hours, beads per cell as percent increase
Description: RAW 264.7 cells either remained at room air (21% O2) or were exposed to 95% O2 for 24 hours in the presence of test substance. Cells were then incubated with FITC-labeled latex mini-beads for 1 hour and stained with phalloidin and DAPI to visualize the actin cytoskeleton and nuclei, respectively. For quantification of phagocytic activity, at least 200 cells per group were counted and the numbers of beads per cell were represented as a percent increase compared to the 21% 02 (0 μg/ml) control group. Each value represents the mean±SEM of 3 independent experiments for each group, in duplicate. *, P<0.05 compared to the 21% O2 (0 μg/ml) control group.

HaCaT cells [5] = experiment: UVA&UVB induced ROS assay in HaCaT cell; type: cell-based, human; details: positive control, 40 μg/mL
Description: as §1, with “Cytotoxicity was evaluated to remove false positives (CCK >80% viability).” left out, “Vitamin C was used as positive control treated at 40 μg/mL with 43% reduction of ROS production. At 25 μg/mL, Rosmarinic acid decreased ROS generation by 24%, compared to the level of UV exposed HaCaT cells.” left out

[6] = DPPH assay, 100 mg/L (Hu et al., 2003); cited from earlier work
phospholipase A2 = phospholipase A2 from snake venom (Cuéllar et al 1996); cited from earlier work
[7] = test system: Pseudomonas aeruginosa (PA) infected hyperoxic mice; experiment: Hyperoxia-induced mortality in Pseudomonas aeruginosa (PA)-infected mice; type: in vivo, mouse
Pseudomonas aeruginosa = experiment: Bacterial clearance in the airways in hyperoxic and PA infected mice; type: in vivo, mouse; details: 24 hours after infection
[8] = test system: hyperoxic and PA infected mice; experiment: Oxidative stress-exacerbated acute lung injury induced by bacterial infection (BAL total protein, biomarkers, histology); type: in vivo, mouse; details: hyperoxia + PA infected mice, Resveratrol 50 mg/kg
[9] = test system: acute ear edema induced by tetradecanoyl phorbol acetate (TPA); details: acute ear edema induced by TPA (Cuellar et al 1997); cited from earlier work

CC(=O)Cc1cc(=O)c2c(C)cc(O)c([C@@H]3O[C@H](CO)[C@@H](O)[C@H](O)[C@H]3O)c2o1 [Aloesin]
HMGB1 inhibition (HMGB1): 52.47

O=C(/C=C/c1ccc(O)c(O)c1)O[C@H](Cc1ccc(O)c(O)c1)C(=O)O [Rosmarinic acid]
MTT (% reduction) (RAW 264.7 cells [1]; 12 μg/mL): 5.63% | MTT (% reduction) (RAW 264.7 cells [1]; 25 μg/mL): 13.47% | MTT (% reduction) (RAW 264.7 cells [1]; 50 μg/mL): 20.03% | MTT (% reduction) (RAW 264.7 cells [1]; 100 μg/mL): 20.53% | reduction of DNA damage ([2]; 25 μg/mL): 24% | Viability (%) (HaCaT cells [3]): 57% | Phagocytosis (RAW 264.7 cells [4]; 12 μg/mL): 51.00% | Phagocytosis (RAW 264.7 cells [4]; 25 μg/mL): 74.35% | inhibition at 25 µg/mL (HMGB1; Mus musculus, RAW264.7): 73%

O=C1O[C@H]([C@@H](O)CO)C(O)=C1O [Vitamin C]
reduction of ROS production (HaCaT cells [5]): 43%

Cc1c(C)c2c(c(C)c1O)CC[C@@](C)(CCC[C@H](C)CCC[C@H](C)CCCC(C)C)O2 [a-tocopherol]
radical scavenging activity [6]: 65.20%

Cc1cc(C(C)(C)C)c(O)c(C(C)(C)C)c1 [butylated hydroxytoluene]
radical scavenging activity [6]: 70.52%

C=C(CC[C@@H](C(=O)O)[C@H]1[C@H](O)C[C@@]2(C)C3=CC[C@H]4C(C)(C)[C@@H](O)CC[C@]4(C)C3=CC[C@]12C)C(C)C [dehydrotumulosic acid]
IC50 (phospholipase A2): 845 µM

Oc1ccc(C=Cc2cc(O)cc(O)c2)cc1 [resveratrol]
mortality rate ([7]; 7 days prophylactic treatment, hyperoxia 2 days, PA inoculated, 24 hours post-inoculation): 27% | Dead animals ([7]; RES 50 mg/kg, hyperoxia + PA inoculation, 11 total animals): 3 | Mortality % ([7]; RES 50 mg/kg, hyperoxia + PA inoculation, 24 hours post-inoculation): 27.27% | Bacterial load in the airways, ×10^5 CFU/mL (Mean ± SE) (Pseudomonas aeruginosa; RES 50 mg/kg, hyperoxic and PA infected mice): 2.4 ± 0.7 ×10^5 CFU/mL | bacterial load in the airways vs hyperoxia + vehicle (O2) (Pseudomonas aeruginosa; UP360 500 mg/kg, Resveratrol 50 mg/kg oral, >99% O2 48 hours, PA intranasal): airway bacterial load was significantly lower | lung injury [8]: significantly reduce lung injury

Catechin
reduction of DNA damage ([2]; 100 μg/ml): 70%

hydrotumulosic acid
IC50 [9]: 0.68 nmol/ear
